Drawing on US9783536B2, “Nitrogen-containing heterocyclic compound or salt thereof” (FUJIFILM Corporation, priority 2013, dated 2017), this text covers IC50 for 23 compounds.

Structures are written as SMILES. Where a name gives a salt, the structure may show the parent alone.

One test has as its target T1, human PI3Kα protein (Homo sapiens, UniProt P42336).
T1 construct: purchased Carna Biosciences, Inc; host or cells: baculovirus expression system
Nature of the test: PI3Kα enzyme assay (ADP-Glo). Format: biochemical. The following applies: 4.5 nmol/L PI3Kα, PIP2 50 μmol/L, ATP 100 μmol/L; read-out: PI3Kα enzyme inhibitory activity. A digest of the protocol:
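Biotinylated human PI3Kα (baculovirus-expressed, 4.5 nmol/L) pre-incubated 15 min with compound in Tris-HCl pH 7.5, MgCl2, BSA; reaction 60 min at 25° C with 50 μmol/L PIP2 and 100 μmol/L ATP final. ADP quantified by ADP-Glo luminescence; IC50 calculated.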

Test [1] deals with T2, GST fusion human ERK2 protein (Homo sapiens, UniProt P28482).
T2 construct: purchased Carna Biosciences, Inc; host or cells: E. coli expression system
Nature of the test: ERK2 enzyme assay (1). Format: biochemical. The following applies: 2.5 nmol/L ERK2, ATP 43.1 μmol/L; read-out: ERK2 enzyme inhibitory activity (1). A digest of the protocol: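 IC50 derived from the proportion of phosphorylated 5-FAM peptide, separated from unphosphorylated peptide by microfluidic mobility shift. Compound was first preincubated 15 min at room temperature with 2.5 nmol/L kinase at pH 7.5, then 43.1 μmol/L ATP plus 4.25 μmol/L substrate reacted 120 min at 25 °C.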

T2 sequence (P28482 whole entry, the tested form may be a part): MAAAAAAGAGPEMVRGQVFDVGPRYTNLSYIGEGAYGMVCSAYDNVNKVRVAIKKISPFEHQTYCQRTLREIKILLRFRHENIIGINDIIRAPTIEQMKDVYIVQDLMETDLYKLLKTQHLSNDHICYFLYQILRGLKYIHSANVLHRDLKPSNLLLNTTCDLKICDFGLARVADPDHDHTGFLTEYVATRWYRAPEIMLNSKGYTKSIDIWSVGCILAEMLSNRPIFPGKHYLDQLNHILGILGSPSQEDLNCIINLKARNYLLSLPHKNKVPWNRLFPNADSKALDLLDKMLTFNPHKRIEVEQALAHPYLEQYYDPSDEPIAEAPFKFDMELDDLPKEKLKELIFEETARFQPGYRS
T1 sequence (P42336 whole entry): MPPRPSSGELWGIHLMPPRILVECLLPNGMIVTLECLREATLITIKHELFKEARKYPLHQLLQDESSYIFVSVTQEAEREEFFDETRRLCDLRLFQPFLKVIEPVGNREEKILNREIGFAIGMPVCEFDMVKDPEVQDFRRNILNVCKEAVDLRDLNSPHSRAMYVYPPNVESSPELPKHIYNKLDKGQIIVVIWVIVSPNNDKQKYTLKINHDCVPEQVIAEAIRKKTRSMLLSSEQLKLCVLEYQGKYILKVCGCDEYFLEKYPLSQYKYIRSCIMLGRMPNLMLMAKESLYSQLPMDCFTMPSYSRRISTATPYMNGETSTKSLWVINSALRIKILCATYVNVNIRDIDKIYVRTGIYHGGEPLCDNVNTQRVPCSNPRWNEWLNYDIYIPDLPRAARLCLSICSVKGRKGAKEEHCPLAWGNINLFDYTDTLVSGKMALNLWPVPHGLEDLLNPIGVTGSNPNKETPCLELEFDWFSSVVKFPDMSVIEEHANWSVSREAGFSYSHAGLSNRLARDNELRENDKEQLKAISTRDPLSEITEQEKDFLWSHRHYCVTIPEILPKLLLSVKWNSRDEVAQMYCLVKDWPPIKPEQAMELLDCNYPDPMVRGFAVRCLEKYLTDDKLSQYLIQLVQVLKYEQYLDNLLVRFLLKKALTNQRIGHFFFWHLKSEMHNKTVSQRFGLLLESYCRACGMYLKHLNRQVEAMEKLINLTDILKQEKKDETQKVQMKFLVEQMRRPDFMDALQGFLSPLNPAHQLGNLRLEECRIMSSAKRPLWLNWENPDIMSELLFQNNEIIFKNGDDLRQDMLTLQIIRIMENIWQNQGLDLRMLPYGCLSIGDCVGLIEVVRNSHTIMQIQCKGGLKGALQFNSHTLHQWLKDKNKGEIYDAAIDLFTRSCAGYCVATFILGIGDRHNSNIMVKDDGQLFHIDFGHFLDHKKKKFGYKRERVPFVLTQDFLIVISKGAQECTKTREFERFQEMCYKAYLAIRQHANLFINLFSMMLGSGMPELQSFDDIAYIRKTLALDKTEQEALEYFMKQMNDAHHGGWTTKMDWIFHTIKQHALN
T1 sequence (P27986 whole entry partner): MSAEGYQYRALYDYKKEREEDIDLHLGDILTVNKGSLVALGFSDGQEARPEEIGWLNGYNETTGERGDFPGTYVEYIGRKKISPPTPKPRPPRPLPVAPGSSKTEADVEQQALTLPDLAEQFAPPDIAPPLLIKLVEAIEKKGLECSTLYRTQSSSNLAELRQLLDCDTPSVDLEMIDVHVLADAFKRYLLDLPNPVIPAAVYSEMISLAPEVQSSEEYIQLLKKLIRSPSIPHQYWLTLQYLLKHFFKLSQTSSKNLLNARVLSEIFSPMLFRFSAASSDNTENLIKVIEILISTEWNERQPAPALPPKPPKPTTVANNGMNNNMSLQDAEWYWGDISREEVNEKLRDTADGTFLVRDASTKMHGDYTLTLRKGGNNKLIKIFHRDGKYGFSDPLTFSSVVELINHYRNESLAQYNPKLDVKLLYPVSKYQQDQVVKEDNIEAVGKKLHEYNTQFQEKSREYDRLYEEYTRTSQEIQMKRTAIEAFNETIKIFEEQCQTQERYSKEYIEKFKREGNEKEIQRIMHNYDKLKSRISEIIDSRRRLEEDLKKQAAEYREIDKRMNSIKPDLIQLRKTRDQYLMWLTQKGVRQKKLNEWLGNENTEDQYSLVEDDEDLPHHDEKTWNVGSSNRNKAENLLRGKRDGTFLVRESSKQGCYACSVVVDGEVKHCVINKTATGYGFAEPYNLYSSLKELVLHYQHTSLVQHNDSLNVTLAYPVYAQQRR

Turning to `Cn1cc(-c2cnc3ccc(Nc4nnc(Cc5ccccc5)s4)nc3c2)cn1` [Example 0165, 5-benzyl-N-(7-(1-methyl-1H-pyrazol-4-yl)-1,5-naphthyridin-2-yl)-1,3,4-thiadiazole-2-amine], the IC50 on human PI3Kα protein is 10 to 50 µM; in test [1] it was below 1 µM.
As for `CN(C)Cc1nnc(Nc2ccc3ncc(-c4cnn(C)c4)cc3n2)s1` [Example 0166, 5-((Dimethylamino)methyl)-N-(7-(1-methyl-1H-pyrazol-4-yl)-1,5-naphthyridin-2-yl)-1,3,4-thiadiazole-2-amine], the IC50 at human PI3Kα protein is 1 to 10 µM; in test [1] it was below 1 µM.
For the compound `Cn1cc(-c2cnc3ccc(Nc4nnc(CCc5ccccc5)s4)nc3c2)cn1` [Example 0171, N-(7-(1-methyl-1H-pyrazol-4-yl)-1,5-naphthyridin-2-yl)-5-phenethyl-1,3,4-thiadiazole-2-amine], the IC50 was 10 to 50 µM on human PI3Kα protein and below 1 µM in test [1].
On to `c1n[nH]cc1Nc1cnc2ccc(Nc3nnc(C4CCCC4)s3)nc2c1` [Example 0175, N^2-(5-cyclopentyl-1,3,4-thiadiazol-2-yl)-N^7-(1H-pyrazol-4-yl)-1,5-naphthyridine-2,7-diamine], for which the IC50 (at human PI3Kα protein; in test [1]) was below 1 µM each time.
`Cn1cc(-c2cnc3ccc(Nc4nnc(S(=O)(=O)Nc5ccccc5)s4)nc3c2)cn1` [Example 0176, 5-((7-(1-methyl-1H-pyrazol-4-yl)-1,5-naphthyridin-2-yl)amino)-N-phenyl-1,3,4-thiadiazole-2-sulfonamide]: the IC50 (on human PI3Kα protein; in test [1]) was below 1 µM in each case.
`Cn1cc(-c2cnc3ccc(Nc4nnc(NS(=O)(=O)c5ccccc5)s4)nc3c2)cn1` [Example 0177, N-(5-((7-(1-methyl-1H-pyrazol-4-yl)-1,5-naphthyridin-2-yl)amino)-1,3,4-thiadiazol-2-yl)benzene sulfonamide hydrochloride]: the IC50 (on human PI3Kα protein; in test [1]) was below 1 µM each time.
Regarding `CCc1cnnc(Nc2ccc3ncc(-c4cnn(CCCN5CCOCC5)c4)cc3n2)c1` [Example 0178, N-(5-ethylpyridazin-3-yl)-7-(1-(3-morpholinopropyl)-1H-pyrazol-4-yl)-1,5-naphthyridine-2-amine], the IC50 (on human PI3Kα protein; in test [1]) was below 1 µM each time.
In the case of `CC(C)(C)OC(=O)N1CCN(CCn2cc(-c3cnc4ccc(Nc5nnc(S(=O)(=O)Nc6ccccc6)s5)nc4c3)cn2)CC1` [Example 0180, tert-Butyl 4-(2-(4-(6-((5-(N-phenylsulfamoyl)-1,3,4-thiadiazol-2-yl)amino)-1,5-naphthyridin-3-yl)-1H-pyrazol-1-yl)ethyl)piperazine-1-carboxylate], the IC50 on human PI3Kα protein was 1 to 10 µM; in test [1], below 1 µM.
With `O=S(=O)(Nc1ccccc1)c1nnc(Nc2ccc3ncc(-c4cnn(CCN5CCNCC5)c4)cc3n2)s1` [Example 0181, N-phenyl-5-((7-(1-(2-(piperazin-1-yl)ethyl)-1H-pyrazol-4-yl)-1,5-naphthyridin-2-yl)amino)-1,3,4-thiadiazole-2-sulfonamide hydrochloride], the IC50 (at human PI3Kα protein; in test [1]) was below 1 µM each time.
`Cc1nnc(Nc2ccc3ncc(Nc4cn[nH]c4)cc3n2)s1` [Example 0182]: the IC50 at human PI3Kα protein is 1 to 10 µM; in test [1], below 1 µM.
Turning to `Cc1nnc(Nc2ccc3ncc(N(C)c4cn[nH]c4)cc3n2)s1` [Example 0183, N^7-methyl-N^2-(5-methyl-1,3,4-thiadiazol-2-yl)-N^7-(1H-pyrazol-4-yl)-1,5-naphthyridine-2,7-diamine], the values for the IC50 (at human PI3Kα protein; in test [1]) were 1 to 10 µM and below 1 µM, respectively.
Turning to `Cc1nnc(Nc2ccc3ncc(Nc4cnn(C)c4)cc3n2)s1` [Example 0184], the results for the IC50 (at human PI3Kα protein; in test [1]) were 1 to 10 µM and below 1 µM, respectively.
On to `Cc1nnc(Nc2ccc3ncc(N(C)c4cnn(C)c4)cc3n2)s1` [Example 0185, N^7-methyl-N^2-(5-methyl-1,3,4-thiadiazol-2-yl)-N^7-(1-methyl-1H-pyrazol-4-yl)-1,5-naphthyridine-2,7-diamine], for which the IC50 (at human PI3Kα protein; in test [1]) was below 1 µM throughout.
In the case of `c1nnc(Nc2ccc3ncc(Nc4cn[nH]c4)cc3n2)s1` [Example 0186, N^7-(1H-pyrazol-4-yl)-N^2-(1,3,4-thiadiazol-2-yl)-1,5-naphthyridine-2,7-diamine], the IC50 (at human PI3Kα protein; in test [1]) was below 1 µM throughout.
As for `Cn1cc(-c2cnc3ccc(Nc4nnc(NS(C)(=O)=O)s4)nc3c2)cn1` [Example 0187, N-(5-((7-(1-methyl-1H-pyrazol-4-yl)-1,5-naphthyridin-2-yl)amino)-1,3,4-thiadiazol-2-yl)methane sulfonamide], the IC50 (at human PI3Kα protein; in test [1]) was below 1 µM in each case.
For `O=S(=O)(Nc1ccccc1)c1nnc(Nc2ccc3ncc(-c4cnn(CCN5CCOCC5)c4)cc3n2)s1` [Example 0188, 5-((7-(1-(2-morpholinoethyl)-1H-pyrazol-4-yl)-1,5-naphthyridin-2-yl)amino)-N-phenyl-1,3,4-thiadiazole-2-sulfonamide sodium salt], the IC50 (on human PI3Kα protein; in test [1]) was below 1 µM each time.
Consider `CN(c1nnc(Nc2ccc3ncc(-c4cnn(C)c4)cc3n2)s1)S(=O)(=O)c1ccccc1` [Example 0190], for which the figures for the IC50 (on human PI3Kα protein; in test [1]) were 1 to 10 µM and below 1 µM, respectively.
Take `Cn1cc(-c2cnc3ccc(Nc4nnc(S(N)(=O)=O)s4)nc3c2)cn1` [Example 0191, ((5-((7-(1-methyl-1H-pyrazol-4-yl)-1,5-naphthyridin-2-yl)amino)-1,3,4-thiadiazol-2-yl)sulfonyl)amide sodium salt]: the IC50 (on human PI3Kα protein; in test [1]) was below 1 µM in each case.
On to `Cn1cc(-c2cnc3ccc(Nc4nnc(S(=O)(=O)NCc5ccccc5)s4)nc3c2)cn1` [Example 0192, N-benzyl-5-((7-(1-methyl-1H-pyrazol-4-yl)-1,5-naphthyridin-2-yl)amino)-1,3,4-thiadiazole-2-sulfonamide sodium salt], for which the IC50 (on human PI3Kα protein; in test [1]) was below 1 µM in each case.
For `CN(C)S(=O)(=O)c1nnc(Nc2ccc3ncc(-c4cnn(C)c4)cc3n2)s1` [Example 0193, N,N-dimethyl-5-((7-(1-methyl-1H-pyrazol-4-yl)-1,5-naphthyridin-2-yl)amino)-1,3,4-thiadiazole-2-sulfonamide], the IC50 (at human PI3Kα protein; in test [1]) was below 1 µM in each case.
With `Cn1cc(Nc2cnc3ccc(Nc4nnc(C5CCCC5)s4)nc3c2)cn1` [Example 0194], the figures for the IC50 (on human PI3Kα protein; in test [1]) were 1 to 10 µM and below 1 µM, respectively.
As for `CN(c1cnc2ccc(Nc3nnc(C4CCCC4)s3)nc2c1)c1cnn(C)c1` [Example 0195, N^2-(5-cyclopentyl-1,3,4-thiadiazol-2-yl)-N^7-methyl-N^7-(1-methyl-1H-pyrazol-4-yl)-1,5-naphthyridine-2,7-diamine], the IC50 on human PI3Kα protein was 1 to 10 µM; in test [1] it was below 1 µM.
For the compound `CN(c1cn[nH]c1)c1cnc2ccc(Nc3nnc(C4CCCC4)s3)nc2c1` [Example 0196, N^2-(5-cyclopentyl-1,3,4-thiadiazol-2-yl)-N^7-methyl-N^7-(1H-pyrazol-4-yl)-1,5-naphthyridine-2,7-diamine], the figures for the IC50 (at human PI3Kα protein; in test [1]) were 1 to 10 µM and below 1 µM, respectively.
